Data taken from PMC4280898, “Diazido Mixed-Amine Platinum(IV) Anticancer Complexes Activatable by Visible-Light Form Novel DNA Adducts” (Chemistry (Weinheim an Der Bergstrasse, Germany), 2013).
Like-named read-outs stand apart in the source and are kept apart here.

Assays:
[1] = test system: A2780 cells; conditions: cited from earlier work
[2] = test system: A2780cis cells; conditions: cited from earlier work; for Resistance factor: A2780cis vs A2780
[3] = test system: A2780 cells; assay: SRB proliferation assay for non-light-sensitive complexes, A2780; format: cell-based, human; conditions: ambient light, 24 h exposure, 72 h recovery
Method: (§1) Cytotoxicity of platinum(II) precursors: To investigate the relationship between the Pt^IV diazidodihydroxido complexes and their Pt^II dichlorido analogues trans-[PtCl2(Am1)(Am2)] (where Am=amine), the cytotoxicities of complexes trans-[PtCl2(MA)(Py)] (5) and trans-[PtCl2(MA)(Tz)] (6) towards A2780 and its cisplatin resistant sub-line A2780cis were determined. The toxicity was not photoinduced, as the complexes are not photoactive. Complexes 5 and 6 are highly cytotoxic towards A2780 and A2780cis cells compared to the reported trans-Pt^II compounds.[18]–[22] Complex 5 is about three-times more cytotoxic than complex 6 towards A2780 cells. […]
(§2) Cell Culture and Proliferation Assay for Non-light-sensitive Complexes
(§3) The A2780 ovarian cell line was obtained from the ECACC (European Collection of Animal Cell Culture, Salisbury, United Kingdom). The cells were maintained in RPMI 1640 media, which was supplemented with 10% foetal calf serum, 1% L-glutamine, and 1% penicillin/streptomycin. All cells were grown at 310 K in an humidified atmosphere containing 5% CO2. Stock solutions of the Pt complexes were freshly prepared in DMSO to assist dissolution and then diluted into saline and medium (maximum final concentration of DMSO 1% and saline 6%). After plating 5000 A2780 cells per well on day 1, Pt complexes were added to the cancer cells on day 3 at concentrations ranging from 0.01 to 100 µM, depending on the preliminary activity data obtained in screening assays. Cells were exposed to the complexes for 24 h, washed with PBS, supplied with fresh medium, and allowed to grow for three doubling times (72 h), and then the protein content (proportional to cell survival) was measured using the sulforhodamine B (SRB) assay.[7] The standard errors are based on two independent experiments of three replicates each.[8]

[4] = test system: A2780cis cells; assay: SRB proliferation assay for non-light-sensitive complexes, A2780cis; format: cell-based, human
Method: as §1, §2, §3

[5] = test system: A2780 cells; assay: Constant challenge proliferation (MTT) assay, A2780; format: cell-based, human; conditions: conventional constant challenge proliferation assay
From the text: (§4) It should be noted that the phototoxicity assay is not a proliferation assay.

[6] = test system: A2780cis cells; assay: Constant challenge proliferation (MTT) assay, A2780cis; format: cell-based, human; conditions: conventional constant challenge proliferation assay
From the text: as §4

[7] = molecular target: T1, HMGB1 protein (Homo sapiens, UniProt P09429); assay: HMGB1 recognition of platinated 50 bp duplex, gel mobility shift assay; format: binding; conditions: 50 bp duplex modified in the dark
T1 sequence (P09429 1-215): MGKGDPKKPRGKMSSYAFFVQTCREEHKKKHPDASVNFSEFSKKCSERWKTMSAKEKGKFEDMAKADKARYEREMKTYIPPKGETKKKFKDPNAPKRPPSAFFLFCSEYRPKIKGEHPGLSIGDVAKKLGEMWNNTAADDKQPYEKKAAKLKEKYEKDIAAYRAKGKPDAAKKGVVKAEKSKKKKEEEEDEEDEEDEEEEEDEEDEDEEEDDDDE
From the text: HMGB1 protein recognition: The interactions of high mobility group protein B1 (HMGB1) with a 50 bp duplex DNA adducts formed by 1 or 2 under irradiation conditions and 5 or 6 in the dark were investigated using a gel mobility shift assay.
Figure 13 Recognition by HMGB1 protein of platinated DNA. Affinity of full-length HMGB1 to non-modified (control) DNA (lanes 1 and 2) or DNA modified by cisplatin (7) in the dark (lanes 3 and 4), 5 in the dark (lanes 5 and 6), 6 in the dark (lanes 7 and 8), photoactivated 1 (420 nm light, lanes 9 and 10) or photoactivated 2 (420 nm light, lanes 11 and 12). Lanes 1, 3, 5, 7, 9, 11, no protein added; lanes 2, 4, 6, 8, 10, 12, 700 ng HMGB1 added.

[8] = test system: calf thymus DNA; conditions: in the dark; cited from earlier work
[9] = test system: calf thymus DNA; conditions: in the dark; ref 32b; cited from earlier work
[10] = test system: pSP73KB plasmid DNA; conditions: in the dark; ref 32b; cited from earlier work
[11] = test system: pUC19 plasmid DNA; conditions: in the dark; cited from earlier work
[12] = test system: 212 bp NdeI–HpaI fragment of pSP73KB DNA; conditions: in the dark, cited from earlier work
[13] = set-up: method as in earlier work; conditions: 310 K; cited from earlier work
[14] = test system: DNA; set-up: method as in PMID 1827334; conditions: ref 3a; cited from earlier work
[15] = test system: 212 bp NdeI–HpaI fragment of pSP73KB DNA; assay: Transcription mapping of DNA adducts (T7 RNA polymerase); format: biochemical; conditions: in the dark; rb=0.01
Method: Sequence preference of DNA adducts: Transcription mapping experiments were performed to determine the DNA binding sites for Pt complexes. The experiments were carried out using a linear 212 bp DNA fragment (sequence in Figure 9 B), randomly modified by transplatin (8), cisplatin (7), 5 or 6 in the dark or by 1 and 2 photoactivated with blue light (420 nm) at rb=0.01 (rb is defined as the number of the molecules of platinum complex coordinated per nucleotide residue), for RNA synthesis by T7 RNA polymerase (Figure 9 A, lanes 8, 7, 5, 6, 1 and 2, respectively). RNA synthesis on the template modified by the platinum complexes produced fragments of defined sizes (Figure 9 A), which indicate the sites where RNA synthesis was prematurely terminated. It should be noted that RNA synthesis by T7 RNA polymerase is prematurely terminated only due to the platinum adducts on the template strand.[23] […] The ability to bind to A and C sites is consistent with the result from AMP and CMP binding experiments (Figure S18 in the Supporting Information).
Figure 9 Inhibition of RNA synthesis by T7 RNA polymerase on the NdeI–HpaI fragment of pSP73KB plasmid DNA modified by complexes 5 or 6, cisplatin (7) or transplatin (8) in the dark, or with photoactivated 1 or 2 (420 nm light). A) Autoradiogram of a polyacrylamide (6 %)/urea (8 M) sequencing gel. […]
assayed by differential pulse polarography for free, unbound platinum.[16] The amount of platinum bound to DNA was calculated by subtracting the amount of free (unbound) platinum from the total amount of platinum present in the reaction. […]
This fragment contained T7 RNA polymerase promoter (in the upper strand close to its 3'-end). […] The fragments produced in RNA synthesis on the template modified by the platinum complexes were analysed by a 6% polyacrylamide/8M urea sequencing gel.
Quantification of DNA adducts […]
Platinum associated with DNA was assessed by flameless atomic absorption […]
Quantification of DNA interstrand cross-links […]

[16] = molecular target: T1, HMGB1 protein; conditions: in the dark; footnote a: taken from literature; cited from earlier work

SMILES	IC50 [1]	Resistance factor [2]	IC50 [2]	also measured
COC(C)=N.N.[Cl][Pt][Cl] [trans-[PtCl2(NH3)(HN=C(OCH3)CH3)]]	1.3 ± 0.3 µM	5.4	7 ± 1.3 µM	–
Cc1cc[n+]([Pt@SP2-2]([NH3+])([Cl])[Cl])cc1 [trans-[PtCl2(NH3)(4-picoline)]]	7 ± 1 µM	11	80 ± 5 µM	–
C1CNCCN1.N.[Cl][Pt][Cl] [trans-[PtCl2(NH3)(piperazine)]]	5 ± 1 µM	8.8	44 ± 2 µM	–
CCC(C)N.N.[Cl][Pt][Cl] (stereo not drawn) [trans-[PtCl2(NH3)(sec-butylamine)]]	2.1 µM	7.4	15.5 µM	–
CC(C)[NH2+][Pt-2]([Cl])([Cl])[n+]1ccn(C)c1	21 ± 0.6 µM	0.66	14 ± 3.5 µM	–
N.N.[Cl][Pt][Cl] [Complex 7, cis-[PtCl2(NH3)2]]	–	–	–	IC50 [3]: 1.5 ± 0.3 µM; Resistance factor ([4]; A2780cis vs A2780, SRB assay): 7.0; IC50 ([4]; ambient light, 24 h exposure, 72 h recovery, SRB): 10.5 ± 0.3 µM; IC50 [5]: 0.5 µM; IC50 [6]: 11 µM; HMGB1 protein recognition [7]: strongly bound by HMGB1; Pt bound after 24 h [8]: 100[36] %; Bifunctional adducts after 24 h [9]: 97–99[32b] %; Interstrand cross-link [10]: 6[32b] %; Unwinding angle [11]: 13[25] °; Sequence specificity ([12]; ref 30c, 37): GG, (GA)[30c], [37]; Time for binding to 5′-GMP to reach 50 % [13]: 7 to 8 h; d(ApG) 1,2-intrastrand cross-links, share of all adducts [14]: 20–25%; d(GpG) 1,2-intrastrand cross-links, share of all adducts [14]: 60–65%
N.N.[Cl][Pt+2][Cl] [Complex 8, transplatin]	> 200 µM	–	–	Sequence specificity [15]: stop sites mainly at G and C; Pt bound after 24 h [8]: 100[36] %; Bifunctional adducts after 24 h [9]: 50[32b] %; Interstrand cross-link [10]: 12[32b] %; Unwinding angle [11]: 9[25] °; Sequence specificity ([12]; ref 32b): G, C[32b]; HMGB1 protein recognition [16]: no ^[a]
CCC(C)C[NH][Pt]([Cl])[Cl].N (stereo not drawn) [trans-[PtCl2(NH3)(2-methyl-butylamine)]]	1.7 µM	5.5	9.3 µM	–
C1CCNCC1.N.[Cl][Pt][Cl] [trans-[PtCl2(NH3)(piperidine)]]	5 ± 0.7 µM	4.0	20 ± 2 µM	–
